Each compound was assayed on body odor (assay: Neutralization of body odor: specimen on left armpit vs anti-transpirant base suspension on right armpit, worn T-shirt rated by trained persons). Details: statement in words on the body odor test; 0.3 wt. % in anti-transpirant base suspension.
Format: in vivo, human
Protocol: The following anti-transpirant base suspension was used to determine the synergistic effect with respect to the neutralization of body odor (values in wt. %):
Each of the following cyclical alcohols of the Formula (I) and/or menthyl compounds of the Formula (II) were added to said composition, wherein the total concentration of alcohol and/or menthyl compound in the suspension is 0.3 wt. % (all values in wt. %, relative to the used anti-transpirant suspension):
Said suspensions, each with a weight ratio of 15:85, were then placed in aerosol cans with a propellant mixture of propane and n-butane (weight ratio 15:85). Specimens No. 1 to 11 were each applied to the left armpit, the anti-transpirant base suspension to the right armpit. 24 hours after application, the body odor on the worn T-shirt on the left armpit (treated with specimens No. 1 to 11) were compared to the body odor of the right armpit (treated with anti-transpirant base suspension) by trained persons. The following rating scale was used: 0=no difference between specimen No. 1 to 11 and anti-transpirant base suspension; +=body odor reduced compared to anti-transpirant base suspension; ++=body odor no longer discernible on the T-shirt.
With `CC(CO)CCCC1CCCCC1` (stereo not drawn) [2-methyl-5-cyclohexylpentanol] the deodorizing effect was “a deodorizing effect is achieved”.
In the case of `CC(=O)O[C@@H]1C[C@H](C)CC[C@H]1C(C)C` [menthylacetate], the deodorizing effect is reported as “deodorizing effect”.
`CC(O)C1CCCCC1` (stereo not drawn) [1-cyclohexylethanol] was tested, and the deodorizing effect was “deodorizing effect”.

— patent publication US10722437B2, “Cosmetic agents with “improved protection against body odor”” (Henkel AG & Co. KGaA, priority 2016, dated 2020)
